Data published in patent US12195427B2, “MASP-2 inhibitors and methods of use” (priority 2018, dated 2025).

Columns and labels:
Lectin Pathway = Lectin Pathway Activation Assay in Human Serum (mannan-coated ELISA, C3c detection); assay type: biochemical; settings: 1% human serum
Protocol: Microtiter ELISA plate was coated with mannan from Saccharomyces cerevisiae (Sigma-Aldrich, M7504) for overnight at 4° C. in coating buffer [15 mM Na2CO3, 35 mM NaHCO3].

MASP-2 (CCP1-CCP2-SP) = MASP-2 (CCP1-CCP2-SP) (Homo sapiens (Human), UniProt O00187); test: Enzymatic Assay for MASP-2 (fluorogenic substrate); assay type: biochemical
Chain of MASP-2 (CCP1-CCP2-SP) (O00187 445-686): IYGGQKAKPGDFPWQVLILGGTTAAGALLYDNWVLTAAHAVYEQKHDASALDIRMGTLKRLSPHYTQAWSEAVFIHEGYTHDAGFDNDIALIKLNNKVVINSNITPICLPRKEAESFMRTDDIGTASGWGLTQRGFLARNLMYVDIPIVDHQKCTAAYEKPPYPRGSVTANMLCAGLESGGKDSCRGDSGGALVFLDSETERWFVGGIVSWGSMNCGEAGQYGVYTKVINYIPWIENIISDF

MASP-2 CCP2-SP = MASP-2 CCP2-SP (Homo sapiens (Human), UniProt O00187); test: MASP-2 co-crystallization, X-ray crystallography and structure analysis (H-bonds, van der Waals contacts); set-up: van der Waals contact distance, MASP-2 HIS 483 atom CD2 / van der Waals contact distance, MASP-2 HIS 483 atom NE2 / van der Waals contact distance, SER 654 C to compound atom / van der Waals contact distance, SER 654 O to compound atom / van der Waals contact distance, TRP 655 C to compound atom / van der Waals contact distance, MASP-2 GLY 528 atom CA / van der Waals contact distance TRP 655 atom CZ3 / van der Waals contact distance TRP 655 atom N / van der Waals contact distance TRP 655 atom CE3 / van der Waals contact distance GLY 656 atom C / van der Waals contact distance GLY 656 atom CA / van der Waals contact distance GLY 656 atom O / van der Waals contact distance, MASP-2 TYR 607 atom CD1 / van der Waals contact distance, MASP-2 PRO 606 atom O / d(C3,CA1) / d(CA1,N1)2 / d(H4,O1) / d(H4,O2) / d(O1,O2) / d(CA1,O2) / d(CA6,O1) / d(CA6,O2) / d(CA1,C5) / d(O2,H3) / d(N2,C2) / d(CA5,N2) / d(N2,C4) / d(N2,C6) / d(N2,CA3) / d(N2,O3) / d(O4,H2): unit not given beside the values; settings: for H-bond distance to MASP-2 ASP 627 atom OD2: ASP 627 OD2; for H-bond distance to MASP-2 GLY 656 atom N: GLY 656 N; for H-bond distance to MASP-2 SER 654 atom O: SER 654 O; for van der Waals contact distance, MASP-2 HIS 483 atom CD2: Table A2-1; for Ligand-pharmacophore element distance, pharmacophore element C2 / Ligand-pharmacophore element distance, pharmacophore element C3 / Ligand-pharmacophore element distance, pharmacophore element C4 / Ligand-pharmacophore element distance, pharmacophore element C5 / Ligand-pharmacophore element distance, pharmacophore element C6 / Ligand-pharmacophore element distance, pharmacophore element C7 / Ligand-pharmacophore element distance, pharmacophore element CA1 / Ligand-pharmacophore element distance, pharmacophore element CA2 / Ligand-pharmacophore element distance, pharmacophore element CA3 / Ligand-pharmacophore element distance, pharmacophore element CA4 / Ligand-pharmacophore element distance, pharmacophore element CA5 / Ligand-pharmacophore element distance, pharmacophore element CA6: Table A4-1; for Pharmacophore protein distance to MET_658 (first MET_658 column) / Pharmacophore protein distance to MET_658 (second MET_658 column) / Pharmacophore protein distance to GLY_528 / Pharmacophore protein distance to PHE_529 / Pharmacophore protein distance to PRO_608 / Pharmacophore protein distance to SER_611 / Pharmacophore protein distance to TRP_655: Table A8-6, nearest protein atom in cell to the left; for Pharmacophore protein distance to MET_658 (first MET_658 column): 6th residue column; for Pharmacophore protein distance to MET_658 (second MET_658 column): 9th residue column; for Pharmacophore protein distance to TRP_655: pharmacophore elements C6, CA3, O3, H1;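 for Ligand-pharmacophore element distance, pharmacophore element C2: distance from averaged pharmacophore element to bound ligand; missing value means element absent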;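 for Ligand-pharmacophore element distance, pharmacophore element C3: distance from averaged pharmacophore element to bound ligand; missing value means element absent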;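 for Ligand-pharmacophore element distance, pharmacophore element C4: distance from averaged pharmacophore element to bound ligand; missing value means element absent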;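 for Ligand-pharmacophore element distance, pharmacophore element C5: distance from averaged pharmacophore element to bound ligand; missing value means element absent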
Chain of MASP-2 CCP2-SP (O00187 445-686): as above
Chain of MASP-2 CCP2-SP (O00187 364-432 partner): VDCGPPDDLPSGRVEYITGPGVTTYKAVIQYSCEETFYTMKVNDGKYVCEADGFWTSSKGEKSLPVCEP
Method in brief: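 Human MASP-2 CCP2-SP, untagged or 6His-tagged, was expressed in E. coli and crystallized. Crystals were soaked with inhibitor in crystallization solution, flash-cooled in liquid nitrogen, and diffracted with synchrotron X-rays (wavelength 1.0). Structures were solved by molecular replacement from 1Q3X and partially refined.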

[1] = Table A2-9, ARG 630, AA atoms CG, CZ
[2] = Table A5-1 pharmacophore: distance between elements, S2/S1 region
[3] = Table A5-2 pharmacophore distance, S3/S4 region
[4] = Table A7-1, between pharmacophore elements of the bound compound
[5] = Table A7-2, between pharmacophore elements of the bound compound

C[C@H](NC(=O)[C@H]1C[C@H](c2ccccc2)CN1)C(=O)NCc1ccc2c(N)nccc2c1 [compound 1090]
IC50 (Lectin Pathway): 0.5 to 5 µM
Ki (MASP-2 (CCP1-CCP2-SP)): < 0.5 µM
H-bond distance to MASP-2 ASP 627 atom OD2 (MASP-2 CCP2-SP; Table A1 (H-Bonds)): 2.8
H-bond distance to MASP-2 GLY 656 atom N (MASP-2 CCP2-SP; Table A1 (H-Bonds)): 3.3
H-bond distance to MASP-2 GLY 656 atom O (MASP-2 CCP2-SP; Table A1 (H-Bonds), GLY 656 O): 2.78
H-bond distance to MASP-2 SER 654 atom O (MASP-2 CCP2-SP; Table A1 (H-Bonds)): 2.96
H-bond distance to MASP-2 SER 657 atom OG (MASP-2 CCP2-SP; Table A1 (H-Bonds), SER 657 OG): 2.73
van der Waals contact distance, MASP-2 HIS 483 atom CD2 (MASP-2 CCP2-SP): 3.74
van der Waals contact distance, MASP-2 PHE 529 atom CE1 (MASP-2 CCP2-SP; Table A2-3): 3.87
van der Waals contact distance, MASP-2 amino acid atom to compound atom (MASP-2 CCP2-SP; Table A2-7 continued: CYS 629 (CA)): 3.89
van der Waals contact distance, MASP-2 amino acid atom to compound atom (MASP-2 CCP2-SP; Table A2-8, CYS 629 / ARG 630, AA atoms CB, N, C, O, CA, CB, CD): 3.9
van der Waals contact distance, MASP-2 amino acid atom to compound atom (MASP-2 CCP2-SP; [1]): 3.64
van der Waals contact distance, MASP-2 amino acid atom to compound atom (MASP-2 CCP2-SP; Table A2-9 second part, ARG 630, AA atoms N, NE, NH1): 3.85
van der Waals contact distance SER 657 atom C (MASP-2 CCP2-SP; Table A2-14, MASP-2 SER 657 C, columns c12-c13 (inferred)): 3.7
Ligand-pharmacophore element distance, pharmacophore element C2 (MASP-2 CCP2-SP): 0
Ligand-pharmacophore element distance, pharmacophore element C3 (MASP-2 CCP2-SP): 0
Ligand-pharmacophore element distance, pharmacophore element C4 (MASP-2 CCP2-SP): 0
Ligand-pharmacophore element distance, pharmacophore element C5 (MASP-2 CCP2-SP): 0
Ligand-pharmacophore element distance, pharmacophore element C6 (MASP-2 CCP2-SP): 0
Ligand-pharmacophore element distance, pharmacophore element C7 (MASP-2 CCP2-SP): 0
Ligand-pharmacophore element distance, pharmacophore element CA1 (MASP-2 CCP2-SP): 0.98
Ligand-pharmacophore element distance, pharmacophore element CA2 (MASP-2 CCP2-SP): 0
Ligand-pharmacophore element distance, pharmacophore element CA3 (MASP-2 CCP2-SP): 0
Ligand-pharmacophore element distance, pharmacophore element CA4 (MASP-2 CCP2-SP): 0
Ligand-pharmacophore element distance, pharmacophore element CA5 (MASP-2 CCP2-SP): 0.91
Ligand-pharmacophore element distance, pharmacophore element CA6 (MASP-2 CCP2-SP): 0
d(CA1,O1) (MASP-2 CCP2-SP; [2]): 5.59
d(CA1,O2) (MASP-2 CCP2-SP; [2]): 5.11
d(H4,O1) (MASP-2 CCP2-SP; [2]): 3.15
d(H4,O2) (MASP-2 CCP2-SP; [2]): 3.68
d(O1,O2) (MASP-2 CCP2-SP; [2]): 3.38
d(CA5,N2) (MASP-2 CCP2-SP; [3]): 5.09
d(N2,C4)4 (MASP-2 CCP2-SP; [3]): 7.94
d(O2,H3) (MASP-2 CCP2-SP; [3]): 5.87
d(O2,N2) (MASP-2 CCP2-SP; [3]): 2.72
a(CA1, O1, O2) (MASP-2 CCP2-SP; Table A6-1 pharmacophore angle): 100.34
a(O1, O2, H4) (MASP-2 CCP2-SP; Table A6-1 pharmacophore angle): 121.29
a(O1, O2, H3) (MASP-2 CCP2-SP; Table A6-2 pharmacophore angle): 152.05
a(O1, O2, N2) (MASP-2 CCP2-SP; Table A6-2 pharmacophore angle): 140.84
Pharmacophore torsion angle a(H4, O1, O2, H3) (MASP-2 CCP2-SP; [4]): 91.31
Pharmacophore torsion angle a(H4, O1, O2, N2) (MASP-2 CCP2-SP; [4]): −177.46
Pharmacophore torsion angle a(O1, H4, O2, CA1) (MASP-2 CCP2-SP; [4]): −92.71
Pharmacophore torsion angle a(O1, O2, N2, CA5) (MASP-2 CCP2-SP; [5]): 134.91
Pharmacophore protein distance to MET_658 (first MET_658 column) (MASP-2 CCP2-SP): 2.69
Pharmacophore protein distance to MET_658 (second MET_658 column) (MASP-2 CCP2-SP): 2.71
Pharmacophore protein distance to GLY_528 (MASP-2 CCP2-SP): 3.61
Pharmacophore protein distance to PHE_529 (MASP-2 CCP2-SP): 2.77
Pharmacophore protein distance to PRO_608 (MASP-2 CCP2-SP): 3.95
Pharmacophore protein distance to SER_611 (MASP-2 CCP2-SP): 2.87
Pharmacophore protein distance to TRP_655 (MASP-2 CCP2-SP): 3.50

C[C@H](NC(=O)[C@H]1C[C@@H](c2ccccc2)CCN1)C(=O)NCc1ccc(C(=N)N)cc1 (stereo in doubt) [compound 1065]
IC50 (Lectin Pathway): < 0.05 µM
H-bond distance to MASP-2 ASP 627 atom OD1 (MASP-2 CCP2-SP; Table A1 (H-Bonds), ASP 627 OD1): 3.14
H-bond distance to MASP-2 ASP 627 atom OD2 (MASP-2 CCP2-SP; Table A1 (H-Bonds)): 3.08
H-bond distance to MASP-2 GLY 656 atom N (MASP-2 CCP2-SP; Table A1 (H-Bonds)): 3.31
H-bond distance to MASP-2 SER 654 atom O (MASP-2 CCP2-SP; Table A1 (H-Bonds)): 2.92
van der Waals contact distance, MASP-2 HIS 483 atom CD2 (MASP-2 CCP2-SP): 3.67
van der Waals contact distance, MASP-2 amino acid atom to compound atom (MASP-2 CCP2-SP; [1]): 3.55
van der Waals contact distance, SER 654 C to compound atom (MASP-2 CCP2-SP; Table A2-11): 3.78
van der Waals contact distance, VAL 653 CG1 to compound atom (MASP-2 CCP2-SP; Table A2-11): 3.6
van der Waals contact distance, TRP 655 CA to compound atom (MASP-2 CCP2-SP; Table A2-12): 3.46
van der Waals contact distance TRP 655 atom CE3 (MASP-2 CCP2-SP; Table A2-13, MASP-2 TRP 655 CE3, compound atom in line below): 3.6
Ligand-pharmacophore element distance, pharmacophore element C2 (MASP-2 CCP2-SP): 0.11
Ligand-pharmacophore element distance, pharmacophore element C3 (MASP-2 CCP2-SP): 0
Ligand-pharmacophore element distance, pharmacophore element C4 (MASP-2 CCP2-SP): 0
Ligand-pharmacophore element distance, pharmacophore element C5 (MASP-2 CCP2-SP): 0
Ligand-pharmacophore element distance, pharmacophore element C6 (MASP-2 CCP2-SP): 0
Ligand-pharmacophore element distance, pharmacophore element C7 (MASP-2 CCP2-SP): 0
Ligand-pharmacophore element distance, pharmacophore element CA1 (MASP-2 CCP2-SP): 0.88
Ligand-pharmacophore element distance, pharmacophore element CA2 (MASP-2 CCP2-SP): 0.1
Ligand-pharmacophore element distance, pharmacophore element CA3 (MASP-2 CCP2-SP): 0
Ligand-pharmacophore element distance, pharmacophore element CA4 (MASP-2 CCP2-SP): 0
Ligand-pharmacophore element distance, pharmacophore element CA5 (MASP-2 CCP2-SP): 0
Ligand-pharmacophore element distance, pharmacophore element CA6 (MASP-2 CCP2-SP): 0
d(CA1,N1) (MASP-2 CCP2-SP; [2]): 3.47
d(CA1,O1) (MASP-2 CCP2-SP; [2]): 4.32
d(CA1,O2) (MASP-2 CCP2-SP; [2]): 4.20
d(H4,O1) (MASP-2 CCP2-SP; [2]): 6.39
d(H4,O2) (MASP-2 CCP2-SP; [2]): 5.35
d(O1,O2) (MASP-2 CCP2-SP; [2]): 3.30
d(N2,C2) (MASP-2 CCP2-SP; [3]): 1.40
d(N2,CA2) (MASP-2 CCP2-SP; [3]): 5.75
d(O2,H3) (MASP-2 CCP2-SP; [3]): 4.40
d(O2,N2) (MASP-2 CCP2-SP; [3]): 2.83
a(CA1, O1, O2) (MASP-2 CCP2-SP; Table A6-1 pharmacophore angle): 110.77
a(O1, O2, H4) (MASP-2 CCP2-SP; Table A6-1 pharmacophore angle): 148.95
A(N1, CA1, O1) a) (MASP-2 CCP2-SP; Table A6-1 pharmacophore angle, all compounds with protonatable center N1 except Methyl-amino-pyridine): 165.45
a(O1, O2, H3) (MASP-2 CCP2-SP; Table A6-2 pharmacophore angle): 145.76
a(O1, O2, N2) (MASP-2 CCP2-SP; Table A6-2 pharmacophore angle): 144.81
a(O2, N2, C2) (MASP-2 CCP2-SP; Table A6-2 pharmacophore angle): 124.85
a(O2, N2, CA2) (MASP-2 CCP2-SP; Table A6-2 pharmacophore angle): 154.55
Pharmacophore torsion angle a(H4, O1, O2, H3) (MASP-2 CCP2-SP; [4]): 44.38
Pharmacophore torsion angle a(H4, O1, O2, N2) (MASP-2 CCP2-SP; [4]): 129.83
Pharmacophore torsion angle a(N1, CA1, O2, H4) (MASP-2 CCP2-SP; [4]): −89.34
Pharmacophore torsion angle a(O1, H4, O2, CA1) (MASP-2 CCP2-SP; [4]): −21.94
Pharmacophore torsion angle a(O1, O2, N2, C2) (MASP-2 CCP2-SP; [4]): 124.96
Pharmacophore torsion angle a(O1, O2, N2, CA2) (MASP-2 CCP2-SP; [5]): 129.88
Pharmacophore protein distance to MET_658 (first MET_658 column) (MASP-2 CCP2-SP): 3.34
Pharmacophore protein distance to MET_658 (second MET_658 column) (MASP-2 CCP2-SP): 3.79
Pharmacophore protein distance to GLY_528 (MASP-2 CCP2-SP): 3.56
Pharmacophore protein distance to PHE_529 (MASP-2 CCP2-SP): 2.70
Pharmacophore protein distance to PRO_608 (MASP-2 CCP2-SP): 3.75
Pharmacophore protein distance to SER_611 (MASP-2 CCP2-SP): 2.57
Pharmacophore protein distance to TRP_655 (MASP-2 CCP2-SP): 3.87
